From a melting point compilation (Tetko et al.; mined from patent text by program, amines drawn as free bases though some values may be those of a salt)

| melting point [°C] | Compound |
| --- | --- |
| 161 to 164 | O=C1CCNC(=O)C1C(=O)c1ccc(Cl)cc1[N+](=O)[O-] (stereo not drawn) |
| 119 to 121 | CCCCCCSCCSCCSc1nc2nc(C)cc(O)n2n1 |
| 121 to 124 | CSc1ccc(NC(=N)c2ccc(F)cc2)cc1 |
| 199 to 201 | O=C(O)Cc1c(C(=O)c2cccc(Cl)c2)[nH]c2cc(Cl)ccc12 |
| 238 to 240 | CN1c2ccc(Cl)cc2NC(=S)c2cscc21 |
| 44 to 47 | CCCCCCCCCCCCCCCCC[C@@H](C[C@@H]1OC(=O)[C@H]1CC)OC(=O)[C@H](CC(C)C)NC(=O)OCc1ccccc1 |
| 195 to 196 | CCOc1cc(Oc2ccc(S(C)(=O)=O)nc2)cc2cc(C3=NCC(CC(N)=O)S3)[nH]c12 (stereo not drawn) |
| 239 to 240 | CC1=C(C#N)C(=C(C#N)C#N)OC1(C)c1ccc(Cl)cc1Cl (stereo not drawn) |
| 220 to 221 | CCN(CC)c1ccc(Nc2nc(N)c(C(=O)c3ccc([N+](=O)[O-])cc3)s2)cc1 |
| 86.4 to 86.5 | CCOC(=O)/C=C/c1ccc(OCCCOC)cc1Oc1ncc(C(F)(F)F)cc1Cl |
| 115 | C=C(c1ccc(N(C)C)cc1)c1ccc(N(C)C)cc1 |
| 80 to 80.7 | CN(C)CC(O)c1cc(C(F)(F)F)nc2c(C(F)(F)F)cccc12 (stereo not drawn) |
| 125 to 127 | COc1cccc(OC2CN([C@H]3CC[C@@H](c4c[nH]c5ccc(F)cc54)CC3)C2)c1 |
| 84 to 86 | COCC1OC(n2cnc3c(NCc4cccc(I)c4)nc(Cl)nc32)C(O)C1O (stereo not drawn) |
| 58 to 63 | COc1cccc2c1OCN(CCc1ccc(C)cc1)C2 |
| 146 | CCNC(=O)c1ccc(-n2nnc(C(=O)NC3CC3)c2COCc2ccccc2)c(O)c1 |
| 142 to 145 | COC(=O)c1cc(C#CC(C)(C)O)cnc1C1=NC(C)(C(C)C)C(=O)N1 (stereo not drawn) |
| 149 to 151 | COc1cc(C(C)=O)ccc1OCCCN1CCC(C(O)(c2cccc(F)c2)c2cccc(F)c2)CC1 |
| 133 to 135 | COc1cc2c(Nc3ccc4cn[nH]c4c3)c(C#N)cnc2cc1OCCN1CCOCC1 |
| 192 to 195 | CCOC(=O)C1c2c([nH]c3ccccc23)C2=C(CCC2)C1C#N (stereo not drawn) |
| 259 to 263 | N#CC(C(=O)Nc1ccccc1)C(=O)c1nn(-c2ccccc2)c2c1Cc1ccc(Cl)cc1-2 (stereo not drawn) |
| 140 to 145 | CC1(C)Cc2cccc(Oc3c(Cl)cc(N)cc3Cl)c2O1 |
| 130 to 132 | COC(=O)C1CCCN(COS(C)(=O)=O)c2c1cc(OCc1ccccc1)c1ccccc21 (stereo not drawn) |

| melting point [°C] | Compound |
| --- | --- |
| 265 to 268 | Cc1ccc(S(=O)(=O)N2CCN(S(=O)(=O)c3ccc(C)cc3)CC3=CC=C(CN(S(=O)(=O)c4ccc(C)cc4)CC2)S3)cc1 |
| 91 to 92 | COc1ccccc1NC(=O)Nc1nc(N2CCCCC2)nc(N(CCC(=O)O)Cc2cccc(C)c2)n1 |
| 68 to 69 | O=C1CC(=Cc2c[nH]c3ccccc23)C(=O)N1Cc1cc(C(F)(F)F)cc(C(F)(F)F)c1 |
| 70 to 75 | C[C@H](O)[C@@H](CCc1cccc(Cl)c1Cl)n1cnc(C(N)=O)c1 |
| 136 | COc1ccc2c(c1Cl)Sc1ccccc1N2C(C)=O |
| 139 to 141 | O=[N+]([O-])c1ccc(-c2nnn(Cc3ccccc3)n2)cc1 |
| > 250 | COc1ccc(S(=O)(=O)n2c(=O)[nH]c3cc(Cl)ccc3c2=O)cc1OC |
| 245 | O=C(Nc1cc(Cl)cc(Cl)c1O)C(=O)Nc1ncc(Cl)cc1Cl |
| 132 to 136 | CC(C)N1C(N)=NS(=O)(=O)NC1Oc1ccc([N+](=O)[O-])cc1 (stereo not drawn) |
| 134 | N#CC(C(=O)c1ccc(-c2ccc(Cl)cc2)cc1)=C1CCCCN1 |
| 275 to 277 | NC(=S)NN=Cc1c2ccccc2c(C=NNC(N)=S)c2ccccc12 |
| 228 to 231 | O=C(O)Cc1c(C(=O)c2ccc(-c3ccccc3)cc2)[nH]c2cc(Cl)ccc12 |
| 144 to 146 | Nc1[nH]c(=O)[nH]c(=O)c1N |
| 141 to 142 | CCOC(=O)N1CCN(c2ccncc2N)CC1 |
| 178 to 182 | Cc1cccc(C)c1NC(=S)CC(=O)Nc1ccc(-c2ncn(-c3ccc(OC(F)(F)F)cc3)n2)cc1 |
| 68 to 70 | Cc1cc(OCc2ccc(-c3ccccc3-c3nnn(C(c4ccccc4)(c4ccccc4)c4ccccc4)n3)cc2)c(CO)c(C)n1 |
| 91 to 93 | c1ccc(CN2C[C@@H]3Cc4cc5ccccc5n4C[C@@H]3C2)cc1 (relative stereo) |
| 114 to 115 | O=C(CO)c1ccc2ccccc2c1 |
| 134 to 135 | COc1cccc(-c2nc(-c3ccccc3)c3ncc(-c4cccnc4)cc3n2)c1 |
| 155 to 157 | O=C1C(=CO)CC[C@H]2C(=O)C(=CO)CC[C@H]12 |
| 75 to 78 | CCCCc1oc2ccccc2c1C(=O)NCc1ccc2c(-c3ccc(C(C)(C)C)cc3)c(OCc3nnn[nH]3)ccc2c1 |
| 98.5 to 100 | O=C(Oc1ccccc1)N1CCC(Oc2ccc(F)cc2)CC1 |
| 118 to 120 | CCCCOc1ccc2c(O)c(C(=O)NCCO)nc(Cl)c2c1 |

| melting point [°C] | Compound |
| --- | --- |
| 150 to 152 | Cc1ccc(-c2cn(C)cc(-c3ccc(Cl)c(Cl)c3)c2=O)cc1C |
| 185 to 188 | Cn1cc(-c2ccccc2)c(=S)c(-c2cccc(Br)c2)c1 |
| 148 | Nc1cc(Cl)nc(SCc2cccc(O)c2)n1 |
| 214 to 215 | O=S(=O)(NCc1ccccc1)c1ccc2nc(S)sc2c1 |
| 167 to 169 | COc1cc2c(c3c1OC(C)(C)C3)C(c1cccc(-c3ccc4ccccc4n3)c1)=NC(C)(C)C2 |
| 124 to 126 | Cc1cc([N+](=O)[O-])c(C)c2c1OC(C)(C)C2=O |
| 180 to 181 | Oc1ccc2c(c1)C(c1ccc(OCCN3CCCCC3)cc1)c1c-2ccc2ccccc12 (stereo not drawn) |
| 123 | Cc1cc(O)c(CC(=O)OC(C)C)cc1O |
| 98 to 100 | CCNc1nc2ccc(CCc3ccc(CN4CCCCC4)o3)cc2o1 |
| 38 to 39 | OCCCCOc1nc(F)c(Cl)cc1Cl |
| 78 to 79 | Cc1c(Cl)cccc1S(=O)(=O)C[N+](=O)[O-] |
| 259 to 263 | CCOc1cc2c(Nc3ccc(OC)cc3)c(C(=O)O)cnc2nc1C |
| 191 to 192 | O=C(O)c1cc(-n2cccc2)cc(C(F)(F)F)c1 |
| 172 to 174 | Cc1cc(N(C)C)nc(N)n1 |
| 130 to 134 | COc1ccc(NS(=O)(=O)c2cc(C)cc(C(C)(C)C)c2O)cc1 |
| 223 to 225 | O=C(c1c(O)c2ccccc2c2nc3ccccc3nc12)N1CCOCC1 |
| 165 to 166 | Cn1c(CCN2CCN(c3cccc(C(F)(F)F)c3)CC2)nc2cc(Br)c3ccccc3c21 |
| 124 to 125 | COC(=O)C(C(=O)OC)c1c(C(=O)OCc2ccc(OC)cc2)cc([N+](=O)[O-])c2ccccc12 |
| 110 to 113 | O=C(CN1CCC(CN2C(=O)c3ccccc3C2=O)CC1)c1ccc(F)cc1 |
| 144 to 145 | O=S(=O)(c1ccccc1)n1c(Cc2cc3ccccc3n2S(=O)(=O)c2ccccc2)cc2ccccc21 |
| 189 to 190 | CCOC(=O)c1cc(NCc2ccccc2)c(Nc2cccc(C(F)(F)F)c2)c(S(N)(=O)=O)c1 |
| 69 to 70 | CCOC(=O)c1cnn2c(-c3cccc(C)c3)ccnc12 |
| 87 to 88 | CC(=O)c1cc(CBr)cc(CBr)c1 |

| melting point [°C] | Compound |
| --- | --- |
| 256 to 257 | CC(C)(C)C(NC(=O)c1ccc(I)cc1)Nc1c(Nc2cccnc2)c(=O)c1=O (stereo not drawn) |
| 51 to 57 | CCOC(=O)C1=C(CO)NC(C)=C(C(=O)OCc2ccccc2)C1c1ccccc1[N+](=O)[O-] (stereo not drawn) |
| 183 to 185 | COCc1nc2c(N)nc3ccccc3c2s1 |
| 247 | O=C(Nc1cccc2c1C(=O)c1c-2n[nH]c1-c1ccc(N2CCC(N3CCCC3)CC2)cc1)NN1CCOCC1 |
| 99 to 100 | c1csc(-c2nc(CCCOc3ccc(CCCn4ccnc4)cc3)co2)c1 |
| 139 | CC1CCC2(C)C(=CCC3C2CCC2(C)C(C(=O)CN)CCC32)C1 (stereo not drawn) |
| 214 to 218 | NC(=S)c1cnn(-c2c(Cl)cc(C(F)(F)F)cc2Cl)n1 |
| 209 to 211 | CCC(=O)c1c(-c2ccncc2)[nH]c(-c2ccncc2)c1CC |
| 141 to 142 | Nc1ncccc1OCc1c(Cl)cccc1Cl |
| 143 to 144 | O=c1cc2c(nn1-c1ccc(Cl)cc1)-c1cc(Br)sc1CCC2 |
| 228 to 232 | O=C(Nc1ccc(N2CCOCC2)cc1)Nc1ccc(C(F)(F)F)cc1 |
| 112 to 114 | COCC1OC(n2cnc3c(N)ncnc32)C(O)C1O (stereo not drawn) |
| 154 to 156 | O=C(c1ccc(N2CCCC2)cc1)C1CCN(Cc2ccccc2)CC1 |
| 157 to 159 | Clc1nc2ccccc2nc1Nc1cccc2ccccc12 |
| 223 to 225 | CCCOC(OCCC)P(=O)(O)CCCN |
| 196 to 198 | N#Cc1cnn2c1N(C(=O)CCl)CC=C2c1cccc(Cl)c1 |
| 98 to 100 | CCCCC1=NC(C)(C)C(=O)N1Cc1ccc(-c2ccccc2C(=O)OC(C)(C)C)cc1 |
| 103 to 105 | CC(=O)N1C(C(=O)NCCO[N+](=O)[O-])CSC1c1ccccc1 (stereo not drawn) |
| 235 to 237 | O=C(O)Cc1ccc(C(=O)O)cc1 |
| 225 to 226 | CN(C)S(=O)(=O)c1cn(C)c2ccccc2c1=O |

| Compound | melting point [°C] |
| --- | --- |
| O=C(O)c1ccc2c(=O)n(CCCCN3CC=C(c4ccccc4)CC3)c(=O)[nH]c2c1 | 296 to 305 |
| Clc1ccc2nnnn2n1 | 104 to 105 |
| O=c1[nH]c(CCl)c(I)c(=O)[nH]1 | 225 |
| CN1C(=O)C(C(=O)OCCN2CCOCC2)N=C(c2ccccc2)c2cc(Cl)ccc21 (stereo not drawn) | 162 to 166 |
| COC(=O)c1ccc(CC(C)NCC(O)c2ccccc2Cl)cc1 (stereo not drawn) | 109 to 110 |
| NCC1(O)CCCc2c1ccc1c2OCO1 (stereo not drawn) | 140 to 142 |
| CCOC(=O)C(C)(C)Oc1cc2c(cc1C)OC1(CC(C)(C)c3cc(O)c(C)cc3O1)CC2(C)C (single isomer, unassigned; (-)) | 165 to 166 |
| COc1ccc(Cn2c(=O)c(C(=O)NC3CCCCC3)c(O)c3cccnc32)cc1 | 149 |
| O=C(NCC(c1ccccc1)c1ccccc1)N1CCC(C(=O)O)(c2ccccc2)CC1 | 173 to 174 |
